# Article PMC9468151, “Identification of a binding site on soluble RANKL that can be targeted to inhibit soluble RANK-RANKL interactions and treat osteoporosis” (Nature Communications, 2022)
# Values joined by “and” are separate entries in the source; they are usually repeats but may differ in a detail not shown here. Equal entries are not always repeated.
# Tests used:
# [1] = test system: RANKL-induced resorption pits; assay: Hydroxyapatite resorption assay; type: cell-based, mouse; conditions: for bone resorption / RANKL-induced resorption pits: in words
# Procedure: BMMs (1 × 10^5 cells/well) were cultured onto 6-well collagen-coated plates and stimulated with 100 ng/mL sRANKL and 10 ng/mL M-CSF for 3 days to generate early stage of osteoclasts began differentiation. Then early-stage osteoclasts were gently harvested using cell dissociation solution, and seeded into OsteoAssay Surface (hydroxyapatite-coated) 24-well plates. Early-stage osteoclasts were continue incubated in a medium containing sRANKL and M-CSF with or without treatment. After 48 h, wells were bleached to remove cells, followed by image acquisition for the measurement of resorbed areas using a Leica microscope. The percentage of surface resorbed was analyzed using ImageJ software.
# [2] = test system: RAW264.7 cells; assay: In vitro cytotoxicity assay (MTT); type: cell-based, mouse
# Procedure, shortened: (§1)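 Log-phase cells were seeded at 6 × 10^3 per well and incubated 24 h, with viability read by MTT. Growth inhibition (%) was calculated from OD relative to vehicle wells. CC50 came from nonlinear regression curve fitting.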
# [3] = In vitro cytotoxicity assay (MTT); type: cell-based, mouse; conditions: mouse, RAW264.7 cells; for viability at 24 h, 0.08 μM: conc. 0.08 μM; for viability at 24 h, 10 μM: conc. 10 μM; for CC50 at 24 h: RAW264.7, MTT
# Procedure, shortened: as §1
# [4] = test system: OVX rats; assay: Osteoporosis biomarkers determination in rat serum (ELISA); type: in vivo; set-up: OCN / RANKL / PINP / CTX-I / Glu-OCN: unit not given here
# Procedure: Change of rat osteoporosis biomarkers after treating with S3-15 were determined by enzyme-linked immunosorbent assay (ELISA). […] serum biomarkers including CTX-I (C-terminal telopeptide of type I collagen), OC(Osteocalcin), PINP (Procollagen I N-Terminal propeptide), and RANKL(Receptor activator of nuclear factor-κB ligand). Rat blood was collected from aortaventralis after anesthesia, and centrifuged in 14000 × g at 4 °C to get the serum samples. The protein contents of those biomarkers in serum samples were detected according to manufacturer’s instruction (CTX-I and OC, Systems IDS, UK; RANKL, R&D Systems, USA; PINP, USCN Life Science, Inc., China.).
# [5] = test system: C3H10T1/2; assay: C3H10T1/2 proliferation and osteoblastic mineralization; type: cell-based, mouse; conditions: C3H10T1/2 or human primary osteoblasts, osteogenic differentiation medium
# Procedure: Supplementary Fig.5. In Vitro Activity Evaluation and Signal Pathway Study of compound S3-15. a Western blot of PI3K and AKT phosphorylation in RAW264.7 cells treating with or without S315 and sRANKL at different point-in-time. b EC50 curve and representative OC microphotographs of mature osteoclasts apoptosis assay with S3-15. n=3 biological replicates for each concentration. EC50 values were calculated by GraphPad Prism 8 software. c EC50 curve and representative OC microphotographs of mature osteoclasts apoptosis assay with S3, S3-03 and S3-05. n=3 biological replicates for each concentration. EC50 values were calculated by GraphPad Prism […]
# pits in dose-dependent manner (mouse BMMs). e Precursor osteoblasts C3H10T12 proliferation-promoting of S3, S3-05 and S3-15. f Osteoblastic mineralization after treatment with S3, S3-05 and S3-15. C3H10T12 cells were cultured in osteoblast induction differentiation medium with or without treatment for 14 days and determinate of calcium deposition in differentiated osteoblasts by Alizarin red staining. Error bars represent ± s.d. n=3. Statistical difference was determined by unpaired two-tailed Student’s t test. Significant difference p value is < 0.05. Scale […]
# (1 picture or pasted object on this page, not shown here)
# [6] = test system: OVX rats; assay: Osteoporosis therapeutic study in OVX rats (micro-CT); type: in vivo, rat; set-up: Tb.N: unit not given beside the values; conditions: for BV/TV / Tb.N / Tb.Sp / Tb.Th: individual animals; for BV/TV of OVX rats: oral 10 mg/kg/day, 12 weeks, in words
# Procedure: Female SD rats or C57BL/6 mice were cared until they grown up to 6 months old or 10 weeks old, respectively. Then we subjected them to either bilateral ovariectomy or sham operation after anesthesia with 10% chloral hydrate (0.3 mL/100 g). Then all the rats or mice were intramuscular injected of penicillin to prevent infection in the first week of surgery. For rat experiments, after 12 weeks of operation, 3 rats from sham-operated or ovariectomized groups were random selected to determine bone mass by micro-CT imaging biopsy to verify successful produced bone loss(data unshown). Then the OVX rats were individually administrated with S3-15, S3, and S3-05 orally with (10 mg/kg/day) for another 12 weeks. For mouse experiments, after 4 weeks of surgery, the OVX mice were treated with 10 mg/kg/day S3-15 for another 4 weeks.
# The weight of rats or mice were recorded every week in the treatment period. After treatment, the rats were harvested, the serum, heart, liver, spleen, lung, kidney, thymus, and femurs were all collected and subjected to subsequent analysis. The right femurs of rats or mice were cleaned excess soft tissue, fixed in 10% formalin, and processed them for microcomputed tomography (micro-CT) analysis. Left mice femurs were collected and excarnate for biomechanical strength testing. Mice peripheral blood were as well as collected for flow cytometry analyzing.
# The right femurs of rats or mice were further analyzed with micro-CT on Inveon PET/CT (Siemens, Germany). We used micro-CT to scan the femur from the femoral head to the femoral condyle, using 19 μm resolution, 80 kV 500uA, 360 projection, 3000-6000 image threshold, full rotation cone beam. Three-dimensional reconstruction and histomorphometric analyses of trabecular bone were conducted with the IAW (Inveon analysis workstation) analysis software. The trabecular extended 1 mm (rat) or 0.5 mm (mice) proximally to the end of the distal growth plate over 2 mm (rats) or 1 mm (mice) toward the diaphysis was selected as the region of interest (ROI) for the analysis. The resulting two-dimensional images of trabecular bone in relative cross sections were shown in grayscale. Trabecular bone parameters were measured including bone volume/tissue volume (BV/TV), bone surface area/bone volume (BS/BV), trabecular number (Tb.N), trabecular thickness (Tb.Th), trabecular separation(Tb.Sp) and trabecular pattern factor(Tb.P.F).
# [7] = read-out: cell viability relative to 0 μM (fig. S5e)
# [8] = serum, OVX + compound, individual animals
# [9] = OVX rats + S3-15, individual animals
# [10] = OVX rats, S3-15 oral 10 mg/kg/day 12 weeks, 10 mg/kg/day
smiles,measurement,setting,value
"CCOC(=O)c1sc(NC(=O)/C(=N/Nc2ccccc2C(=O)O)C(C)=O)nc1C [S3, (E)-2-(2-(1-((5-(ethoxycarbonyl)-4-methylthiazol-2-yl)amino)-1,3-dioxobutan-2-ylidene) hydrazinyl) benzoic acid]",bone resorption / RANKL-induced resorption pits,[1],suppresses RANKL-induced resorption
same,cell viability relative to 0 μM (fig. S5e),[2]; conc. 0.08 μM,118.628 and 117.348
same,cell viability relative to 0 μM (fig. S5e),[2]; conc. 0.28 μM,120.489 and 117.697
same,cell viability relative to 0 μM (fig. S5e),[2]; conc. 0.92 μM,125.722 and 127.234
same,cell viability relative to 0 μM (fig. S5e),[2]; conc. 3.03 μM,128.164 and 131.886
same,cell viability relative to 0 μM (fig. S5e),[2]; conc. 10 μM,130.258 and 129.909
same,"viability at 24 h, 0.08 μM",[3]; [7],105%
same,"viability at 24 h, 0.28 μM","[3]; conc. 0.28 μM, read-out: cell viability relative to 0 μM (fig. S5e)",107%
same,"viability at 24 h, 0.92 μM","[3]; conc. 0.92 μM, read-out: cell viability relative to 0 μM (fig. S5e)",111%
same,"viability at 24 h, 3.03 μM","[3]; conc. 3.03 μM, read-out: cell viability relative to 0 μM (fig. S5e)",121%
same,"viability at 24 h, 10 μM",[3]; [7],120%
same,CC50 at 24 h,[3],44.6 µM
same,CTX-I,[4]; [8],21.3236 and 22.8572 and 16.6793 and 10.172 and 21.7818 and 24.1752 and 24.2142 and 25.7828
same,Glu-OCN,[4]; [8],19.4432 and 20.3365 and 14.3331 and 16.8798 and 23.559 and 26.5413 and 32.3597 and 27.0763
same,OCN,[4]; [8],79.4709 and 101.933 and 71.1854 and 74.676 and 124.633 and 154.593 and 174.247 and 198.288
same,PINP,[4]; [8],3388.13 and 10860 and 11369.2 and 5541.99 and 4144.03 and 7092.56 and 5050.08 and 5955.78
same,RANKL,[4]; [8],139.364 and 152.091 and 195.727 and 181.182 and 193.909 and 213.909 and 163 and 128.454
same,cell proliferation and mineralization,[5],increase cell proliferation and mineralization
same,BV/TV,[6]; OVX + compound,0.3479 and 0.4471 and 0.777 and 0.287 and 0.2327 and 0.4826 and 0.4913
same,Tb.N,[6]; OVX + compound,0.07107 and 0.08431 and 0.1472 and 0.07083 and 0.06968 and 0.09727 and 0.1011
same,Tb.Sp,[6]; OVX + compound,0.1332 and 0.1043 (2×) and 0.04227 and 0.1759 and 0.2298 and 0.1047
same,Tb.Th,[6]; OVX + compound,4.895 and 5.303 and 5.277 and 4.053 and 3.339 and 4.961 and 4.861
same,BV/TV of OVX rats,[6],increased
CC(=O)/C(=N\Nc1ccccc1C(=O)O)C(=O)Nc1ccccn1 [S3-15],resorption pits area quantification (fig. 6g),"[1]; S3-15 0.1 μM, vehicle 95, 90, 94",80 and 85 and 76
same,resorption pits area quantification (fig. 6g),[1]; S3-15 1 μM,57 and 64 and 65
same,resorption pits area quantification (fig. 6g),[1]; S3-15 10 μM,34 and 29 and 27
same,bone resorption / RANKL-induced resorption pits,[1],attenuated bone resorption in a dose-dependent manner
same,cell viability relative to 0 μM (fig. S5e),[2]; conc. 0.08 μM,111.614 and 102.001
same,cell viability relative to 0 μM (fig. S5e),[2]; conc. 0.28 μM,101.596 and 120.838 and 143.415
same,cell viability relative to 0 μM (fig. S5e),[2]; conc. 0.92 μM,144.954 and 160.091 and 138.541
same,cell viability relative to 0 μM (fig. S5e),[2]; conc. 3.03 μM,169.327 and 148.033 and 125.969
same,cell viability relative to 0 μM (fig. S5e),[2]; conc. 10 μM,154.703 and 140.336
same,"viability at 24 h, 0.08 μM",[3]; [7],107%
same,"viability at 24 h, 10 μM",[3]; [7],137%
same,CC50 at 24 h,[3],62.5 µM
same,"CTX-I, serum",[4]; [9],19.469 pg/mL and 18.8316 pg/mL and 14.1264 pg/mL and 18.682 pg/mL and 15.0327 pg/mL and 20.1095 pg/mL and 19.8831 pg/mL and 22.3952 pg/mL and 19.2437 pg/mL
same,"Glu-OCN, serum",[4]; [9],17.0885 pg/mL and 18.9711 pg/mL and 13.9189 pg/mL and 19.8634 pg/mL and 15.7343 pg/mL and 15.8903 pg/mL and 20.547 pg/mL and 20.6523 pg/mL and 22.4466 pg/mL
same,"OCN, serum",[4]; [9],88.7207 pg/mL and 63.1562 pg/mL and 56.8431 pg/mL and 170.125 pg/mL and 130.12 pg/mL and 70.5071 pg/mL and 180.184 pg/mL and 178.468 pg/mL and 148.784 pg/mL
same,"PINP, serum",[4]; [9],11904.5 pg/mL and 9058.6 pg/mL and 6938.35 pg/mL and 7805.25 pg/mL and 15755.4 pg/mL and 15266.7 pg/mL and 4261.9 pg/mL and 14338.4 pg/mL and 6837.57 pg/mL
same,"RANKL, serum",[4]; [9],197.546 pg/mL and 226.636 pg/mL and 184.818 pg/mL and 228.454 pg/mL and 215.727 pg/mL and 223 pg/mL and 210.273 pg/mL
same,cell proliferation and mineralization,[5],increase cell proliferation and mineralization
same,BV/TV,"[6]; OVX rats, S3-15 oral 10 mg/kg/day 12 weeks, distal femur, 10 mg/kg/day",0.6788 and 0.422 and 0.4058 and 0.5401 and 0.3909 and 0.3235 and 0.4349 and 0.3705 and 0.4806
same,Tb.N,[6]; [10],6.402 1/mm and 4.855 1/mm and 5.594 1/mm and 4.923 1/mm and 3.924 1/mm and 4.525 1/mm and 4.231 1/mm and 4.365 1/mm and 4.683 1/mm
same,Tb.Sp,[6]; [10],0.05016 mm and 0.1191 mm and 0.1062 mm and 0.09343 mm and 0.1553 mm and 0.1495 mm and 0.1335 mm and 0.1442 mm and 0.1109 mm
same,Tb.Th,[6]; [10],0.05016 mm and 0.1191 mm and 0.1062 mm and 0.09343 mm and 0.1553 mm and 0.1495 mm and 0.1335 mm and 0.1442 mm and 0.1109 mm
same,BV/TV of OVX rats,[6],increased
